Assay results: patent publication US10765114B2, “4-amino-6-(pyridyl and 2-substitutedphenyl)-picolinates and 6-amino-2-(pyridyl and 2-substitutedphenyl)-pyrimidine-4-carboxylates and their use as herbicides” (Dow AgroSciences LLC, priority 2013, dated 2020)
Where two headings read alike, the source gives them in different places.

Experiments:
[1] = tested on: Key Grass and Sedge Weeds as well as Grass Crops; test: Post-Emergent Test II (Table 6); type: in vivo; settings: post-emergence, 336 h, 14 days after application; for pest or weed control at 70 g/ha: 70 g ai/ha; for pest or weed control at 140 g/ha: 140 g ai/ha
Summary of the method: (§1)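 Plants grown in a greenhouse (~15 h photoperiod, 23-29° C day) to first or second true leaf stage were sprayed post-emergence at 187 L/ha with compound in acetone/DMSO-based aqueous spray containing crop oil concentrate and surfactant, applied at a high rate plus ½× to 1/16× serial rates. Injury was scored visually 14 days later, 0-100% versus untreated plants.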

[2] = tested on: Key Broadleaf Weed and Crop Species; test: Post-Emergent Test II (Table 5); type: in vivo; settings: post-emergence, 336 h; for pest or weed control at 70 g/ha: application rate 70 (kg ai/ha; footnote: g ai/ha); for pest or weed control at 140 g/ha: application rate 140 (kg ai/ha; footnote: g ai/ha)
Summary of the method: as §1

[3] = CYPSS, read-out: Visual Growth Reduction (%) 14 Days After Application CYPSS
[4] = DIGSA: crabgrass (Digitaria sanguinalis), read-out: Visual Growth Reduction (%) 14 Days After Application DIGSA
[5] = ECHSS, read-out: Visual Growth Reduction (%) 14 Days After Application ECHSS
[6] = ORYSS (crop), read-out: Visual Growth Reduction (%) 14 Days After Application ORYSS
[7] = SETFA: giant foxtail (Setaria faberi), read-out: Visual Growth Reduction (%) 14 Days After Application SETFA
[8] = SORVU: grain sorghum (Sorghum vulgare), read-out: Visual Growth Reduction (%) 14 Days After Application SORVU
[9] = TRZSS (crop), read-out: Visual Growth Reduction (%) 14 Days After Application TRZSS
[10] = ZEAMX: maize, corn (Zea mays), read-out: Visual Growth Reduction (%) 14 Days After Application ZEAMX
[11] = Abutilon theophrasti, ABUTH: velvetleaf (Abutilon theophrasti), read-out: Visual Growth Reduction (%) 14 Days After Application ABUTH
[12] = Amaranthus retroflexus, AMARE: redroot pigweed (Amaranthus retroflexus), read-out: Visual Growth Reduction (%) 14 Days After Application AMARE
[13] = Brassica napus, BRSSS: oilseed rape, canola (Brassica napus), read-out: Visual Growth Reduction (%) 14 Days After Application BRSSS
[14] = Chenopodium album, CHEAL: lambsquarters (Chenopodium album), read-out: Visual Growth Reduction (%) 14 Days After Application CHEAL
[15] = Euphorbia heterophylla, EPHHL: wild poinsettia (Euphorbia heterophylla), read-out: Visual Growth Reduction (%) 14 Days After Application EPHHL
[16] = Helianthus annuus, HELAN: sunflower (Helianthus annuus), read-out: Visual Growth Reduction (%) 14 Days After Application HELAN
[17] = Viola tricolor, VIOTR: wild pansy (Viola tricolor), read-out: Visual Growth Reduction (%) 14 Days After Application VIOTR

SMILES | pest or weed control at 70 g/ha [1, 3] | pest or weed control at 140 g/ha [1, 3] | pest or weed control at 70 g/ha [1, 4] | pest or weed control at 140 g/ha [1, 4] | pest or weed control at 70 g/ha [1, 5] | pest or weed control at 140 g/ha [1, 5] | pest or weed control at 70 g/ha [1, 6] | pest or weed control at 140 g/ha [1, 6] | pest or weed control at 70 g/ha [1, 7] | pest or weed control at 140 g/ha [1, 7] | pest or weed control at 70 g/ha [1, 8] | pest or weed control at 140 g/ha [1, 8] | pest or weed control at 70 g/ha [1, 9] | pest or weed control at 140 g/ha [1, 9] | pest or weed control at 70 g/ha [1, 10] | pest or weed control at 140 g/ha [1, 10] | pest or weed control at 70 g/ha [2, 11] | pest or weed control at 140 g/ha [2, 11] | pest or weed control at 70 g/ha [2, 12] | pest or weed control at 140 g/ha [2, 12] | further results
C=Cc1c(-c2cc(N)c(Cl)c(C(=O)OC)n2)ccc(Cl)c1F [Compound 79, methyl 4-amino-3-chloro-6-(4-chloro-3-fluoro-2-vinylphenyl)picolinate] | 95 to 100% | 95 to 100% | 0 to 29% | 0 to 29% | 0 to 29% | 0 to 29% | 0 to 29% | 0 to 29% | 0 to 29% | 0 to 29% | 0 to 29% | 30 to 44% | 0 to 29% | 0 to 29% | 0 to 29% | 0 to 29% | 95 to 100% | 0 to 29% | 95 to 100% | 95 to 100% | pest or weed control at 70 g/ha [2, 13]: 95 to 100%; pest or weed control at 140 g/ha [2, 13]: 95 to 100%; pest or weed control at 70 g/ha [2, 14]: 95 to 100%; pest or weed control at 140 g/ha [2, 14]: 95 to 100%; pest or weed control at 70 g/ha [2, 15]: 0 to 29%; pest or weed control at 140 g/ha [2, 15]: 0 to 29%; pest or weed control at 70 g/ha [2, 16]: 85 to 94%; pest or weed control at 140 g/ha [2, 16]: 85 to 94%; pest or weed control at 70 g/ha [2, 17]: 0 to 29%; pest or weed control at 140 g/ha [2, 17]: 0 to 29%
Nc1cc(-c2ccc(Cl)c(F)c2CF)nc(C(=O)O)c1Cl [Compound 80, 4-Amino-3-chloro-6-(4-chloro-3-fluoro-2-(fluoromethyl)phenyl)picolinic acid] | 0 to 29% | 0 to 29% | 0 to 29% | 0 to 29% | 0 to 29% | 0 to 29% | 0 to 29% | 0 to 29% | 0 to 29% | 0 to 29% | 0 to 29% | 0 to 29% | 0 to 29% | 0 to 29% | 0 to 29% | 0 to 29% | 75 to 84% | 75 to 84% | 95 to 100% | 95 to 100% | pest or weed control at 70 g/ha [2, 13]: 95 to 100%; pest or weed control at 140 g/ha [2, 13]: 95 to 100%; pest or weed control at 70 g/ha [2, 14]: 95 to 100%; pest or weed control at 140 g/ha [2, 14]: 95 to 100%; pest or weed control at 70 g/ha [2, 15]: 0 to 29%; pest or weed control at 140 g/ha [2, 15]: 0 to 29%; pest or weed control at 70 g/ha [2, 16]: 85 to 94%; pest or weed control at 140 g/ha [2, 16]: 85 to 94%; pest or weed control at 70 g/ha [2, 17]: 0 to 29%; pest or weed control at 140 g/ha [2, 17]: 0 to 29%
Nc1c(F)c(-c2ccc(I)nc2)nc(C(=O)O)c1Cl [Compound 81] | 95 to 100% | 95 to 100% | 75 to 84% | 75 to 84% | 85 to 94% | 85 to 94% | 45 to 59% | 60 to 74% | 75 to 84% | 85 to 94% | 45 to 59% | 45 to 59% | 60 to 74% | 60 to 74% | 30 to 44% | 45 to 59% | 85 to 94% | 85 to 94% | 95 to 100% | 95 to 100% | pest or weed control at 70 g/ha [2, 13]: 85 to 94%; pest or weed control at 140 g/ha [2, 13]: 85 to 94%; pest or weed control at 70 g/ha [2, 14]: 95 to 100%; pest or weed control at 140 g/ha [2, 14]: 95 to 100%; pest or weed control at 70 g/ha [2, 15]: 95 to 100%; pest or weed control at 140 g/ha [2, 15]: 95 to 100%; pest or weed control at 70 g/ha [2, 16]: 75 to 84%; pest or weed control at 140 g/ha [2, 16]: 85 to 94%; pest or weed control at 70 g/ha [2, 17]: 95 to 100%; pest or weed control at 140 g/ha [2, 17]: 95 to 100%
